What was measured:
[1] = GSH consumption assay (LC/MS); settings: 100 μM compound, 5 mM GSH, same conditions as ibrutinib
Protocol: A sample from the reaction mixture was injected to an LC/MS every hour, and we quantified the decrease in starting material over the course of the reaction.
All solvents were bubbled with argon. Reaction mixtures were kept at 10 °C. Every 1 h, 5 μL from the reaction mixture were injected into the LC/MS. The reaction was followed by the peak area of the electrophile normalized by the area of the 4-nitrocyano benzene (i.e., by the disappearance of the starting material). The natural logarithm of the results was fitted to linear regression, and t1/2 was calculated as t1/2 = ln 2/–slope.

[2] = target: T1, BTK (Homo sapiens, UniProt Q06187); assay: BTK activity (autophosphorylation) in Mino cells, Western blot; format: cell-based; parameters: endogenous in cells; host or cells: Mino cells; settings: anti-human IgM activation
Protocol: To assess the cellular efficacy of these compounds, we followed the inhibition of BTK autophosphorylation in Mino cells. After 1 h of pre-incubation with the inhibitors and B-cell activation with an anti-IgM antibody, BTK autophosphorylation was followed by Western blot.
The cell pellets were subjected to immunoblotting, and Western blots were performed for p-BTK, BTK, and β-actin.
Cell pellets were washed with ice-cold PBS and lysed using RIPA buffer (Sigma, R0278). […] Samples containing 50 μg total protein were prepared with 4× LDS sample buffer (NuPAGE, Thermo Scientific, NP0007) and 20 mM DTT, which were then resolved on a 4–20% Bis–Tris gel (GeneScript SurePAGE, M00657). […] An EZ-ECL Kit (Biological Industries, 20-500-1000) was used to detect HRP activity.

[3] = target: T1, BTK; assay: Cellular labeling profile of CoLDR probe in Mino cells, in-gel fluorescence; format: cell-based; parameters: endogenous in cells; host or cells: Mino cells; settings: 2 h, 100 nM
Protocol: In addition to the in vitro labeling of BTK by our probe, we also tested its engagement in cells. […] The samples were imaged via gel fluorescence. […] We conducted this cellular labeling experiment at higher concentrations to assess the saturation of BTK binding (Figure S33B).
Precipitation: 1× chloroform, 4× methanol, and 3× water were added to the samples and vortexed thoroughly. The samples were spun down for 10 min at 4 °C, 21,000g. The top layer was aspirated, and the pellet was resuspended in 4× methanol. The sample was vortexed and spun down again for 10 min at 4 °C, 21,000g, the solution was removed, and the pellet was dried for 2 min. The pellet was dissolved in 42 μL of PBS followed by a 14 μL of 4× sample buffer.

[4] = tested on: Mino cells; assay: In situ proteomic labeling with alkyne probes, in-gel fluorescence; format: cell-based; settings: 2 h, TAMRA-azide CuAAC
Source text: To assess proteomic selectivity in cells, we have synthesized two sulfamate acetamides (2a and 2b) and a chloroacetamide (2c) with an alkyne functionality (Figure 2A and Figure S8). We treated Mino cells for two hours with either DMSO or 2a–2c. We then lysed the cells, labeled the alkynes via copper-catalyzed “click chemistry” (CuAAC) with TAMRA-azide, and imaged the adducts via in-gel fluorescence (Figure 2C). Similar to their reactivity pattern in the GSH reactivity assay, these compounds labeled various amounts of proteins under cellular conditions.
Mino cells were cultured in RPMI-medium supplemented with 15% FBS and 1% p/s at 37 °C and 5% CO2. […] The cells were lysed with RIPA buffer (Sigma, R0278), and protein concentration was determined using BCA protein assay (Thermo Fisher Scientific, 23225). Lysates were then diluted to 2 mg/mL in PBS. Lysates were clicked to TAMRA-azide (Lumiprobe). “Click” reaction was performed using a final concentration of 40 μM TAMRA-azide, 3 mM CuSO4, 3 mM Tris(3-hydroxypropyltriazolylmethyl)amine (THPTA, Sigma), and 3.7 mM Sodium L-ascorbate (Sigma) in a final volume of 60 μL. The samples were subjected to precipitation.
Precipitation: 1× chloroform, 4× methanol, and 3× water were added to the samples and vortexed thoroughly. The samples were spun down for 10 min at 4 °C, 21,000g. […]

[5] = DTNB thiol reactivity assay; format: physicochemical
Protocol: The compound 5,5′-dithio-bis(2-nitrobenzoic acid) (DTNB; 50 μM) was incubated with 200 μM tris(2-carboxyethyl)phosphine (TCEP) in 20 mM sodium phosphate buffer (pH 7.4) and 150 mM NaCl for 5 min at room temperature to obtain TNB^–2. […] UV absorbance was acquired every 15 min for 7 h. The assay was performed in a 384-well plate using a Tecan Spark 10 M plate reader. […] Compounds were measured in triplicate. The data were fitted to a second-order reaction equation such that the rate constant (K) is the slope of ln([A][B0]/[B][A0]), where [A0] and [B0] are the initial concentrations of the compound (200 μM) and TNB^–2 (100 μM), respectively, and [A] and [B] are the remaining concentrations as a function of time as deduced from spectrometric measurements. Linear regression using Prism was performed to fit the rate against the first 7 h of measurements.

[6] = target: T2, Pin1 (Homo sapiens, UniProt Q13526); assay: Intact protein MS labeling of Pin1; format: binding; settings: 2 μM Pin1, 2 μM compound, pH 7.5, 1 h, 25 °C
T2 construct: The catalytic domain of Pin1 (2 μM) in […] and 75 mM NaCl (pH 7.5) was incubated; made in house
Protocol: Initially, we incubated these compounds (4a–4g; 2 μM) with Pin1 (2 μM; 50 mM Tris buffer; pH 7.5, 1 h; 25 °C) to check covalent labeling by intact protein MS (Figure 5B,C; Figure S23). Under these conditions, sulfopin labeled 59% as previously reported;[38] the sulfonate (4a) labeled 18%, whereas alkyl sulfamates (4b and 4c) labeled 16 and 56%, respectively. […] We have previously reported that replacing the tert-butyl group in sulfopin by a cyclohexyl increases the labeling along with intrinsic thiol reactivity. Compound 4g contains a cyclohexyl group instead of the tert-butyl and a phenyl sulfamate electrophile and was able to label >95% of Pin1 under these conditions.
Pin1 was expressed and purified as previously reported.[38] The catalytic domain of Pin1 (2 μM) in […] and 75 mM NaCl (pH 7.5) was incubated with 2 μM sulfopin sulfamate (4a–4g) for 1 h at 25 °C.
The reaction mixtures, at room temperature for various times, were injected into the LC/MS. For data analysis, the raw spectra were deconvoluted using a 20,000:40,000 Da (For Pin1, 10,000:30,000) window and 1 Da resolution. The labeling percentage for a compound was determined as the labeling of a specific compound (alone or together with other compounds) divided by the overall detected protein species.

[7] = target: T2, Pin1; assay: Determination of KI and Kinact for Pin1; format: binding; settings: Pin1 0.5 μM, 100 mM Tris buffer pH 7.4, 14 °C
Protocol: intensities. Ratios that were above 20 or infinite (due to the sum being zero for the low intensities) were defined as 20. Intensities measured for different peptides containing the same modified cysteine were […]
Pin 1 (500 nM) was incubated at various concentrations of Sulfopin (0.5, 1, 2, 5, 20, 50, 100, 150, […]
in 100 mM Tris buffer at pH 7.4. After the addition, the samples are put at 14 °C. The reaction mixtures, at various time points (indicated in the graph), were injected into the LC/MS. For data analysis, the raw spectra were deconvoluted using a 10000:30000 Da window and 1 Da resolution. The labeling percentage for a compound was determined as the labeling of a specific compound (alone or together with other compounds) divided by the overall detected protein species. The % of unlabelled Pin 1 was plotted against time and fitted to the pseudo-first-order reaction kinetics formula (Figure S24A & C). The obtained rate constants were fitted to the Michaelis-Menten-type saturation curve (Fig. S24B & D) to extrapolate kinact and KI.

[8] = tested on: PATU-8988T cells; assay: Competitive isoDTB-ABPP in PATU-8988T cells; format: cell-based, human; parameters: dose or concentration left out as unconfirmed; settings: 4 h
Protocol: Using our previously reported sulfopin-DTB probe[38] (Figure S29A), we evaluated the cellular engagement of these compounds with Pin1 in OCI-AML2 cells. Compounds 4c, 4d, 4e, and 4g and sulfopin were incubated in OCI-AML2 cells (0.5 and 2.5 μM) followed by lysis and treatment with sulfopin-DTB (1 μM). The lysates were pulled down using streptavidin beads, and Pin1 was imaged by Western blot. […] At 0.5 μM, all of these compounds show only ∼30% Pin1 engagement. […] Both sulfopin and 4d labeled only six peptides with an H/L ratio of >2. […]
The preparation of IsoDTB-ABPP samples was performed essentially as described in Zanon et al.2.
Experiments were conducted in quadruplicates. PATU cells were incubated for 2 h with 5 µM compounds Sulfopin or 3g (or with DMSO), and collected by centrifuge at 300 g for 5 min followed by ice cold PBS wash. For lysis, samples containing 10 million cells were dispersed in 0.5 mL of RIPA buffer (Sigma, R0278), incubated with occasional vortexing for 30 min on ice, followed by centrifugation at 21,000 g for 15 min. […]
sample was diluted to 1.7 mg/mL using PBS. To each sample, 5 µL of 10 mM IA-alkyne was added, followed by 1 h incubation at room temperature in the dark. 10 µL of 5 mM DesThioTag was added (Light for the compound treated samples, heavy for the DMSO-treated samples), followed by 18 µL of CuSO4:THPTA (100 mM), and the click reaction was initiated by addition of 15 µL of 150 mM sodium ascorbate (freshly dissolved in water). The samples were incubated on a rotary shaker for 1 h at room temperature. The compound-treated and DMSO-treated samples were mixed with 4 mL methanol, 1 mL chloroform and 2 mL water on ice, vortexed and centriduged at 3200 g for 10 min at 4°C. The top layer was aspirated, and 3 mL methanol was added, followed by centrifugation and aspiration of the supernatant. The pellets were air dried and stored at -80°C until the following treatment. The pellets were resuspended in 0.3 mL of 8 M urea freshly dissolved in PBS using probe sonication (8 sec total at 40% amplitude, 1 sec on/2 sec off, at room temperature). Following the resuspension, the samples were diluted with 1 mL of PBS. Then each sample was mixed with 1.3 mL of slurry containing 110 µL of streptavidin agarose beads (Thermo Streptavidin Agarose cat # 20349), prewashed, and dispersed in 0.2% IGEPAL. The samples were incubated with rotation for 3 h at room temperature. The beads were pelleted by centrifugation at 2000 g for 2 min, transferred to spin columns, and washed 3 times with 0.1% IGEPAL/PBS, 3 times PBS, and 3 times water.
The beads were then suspended in 8 M Urea/50 mM ammonium bicarbonate, and 15 µL of 31 mg/mL DTT were added, followed by incubation at 37°C for 45 min. […]

[9] = Metabolic stability of sulfopin analogues in liver microsomes; format: in vitro ADME
Protocol: Next, we examined the buffer stability of the sulfopin sulfamate acetamides in PBS buffer (pH 8; 37 °C). Similar to the model compounds, the chloroacetamide (sulfopin) and sulfonate (4a) warheads show 30 and 15% hydrolysis after 2 days, respectively (Figure S26).
Figure S27: Sulfopin sulfamates show high metabolic stability: Compounds (Sulfopin, 4d, and 4g) were incubated
in liver microsomes and injected to LC/MS/MS at indicated time points. The peak intensities of the compounds were […]

[10] = Buffer stability assay; format: physicochemical
Protocol: Reaction mixtures were kept at 37 °C with shaking. After 4 days (unless otherwise mentioned), 5 μL from the reaction mixture were injected into the LC/MS to check the stability of the compounds.

[11] = Q13526_C113 (Pin1 Cys113), text: PATU-8988T cells

T1 sequence (Q06187 whole entry): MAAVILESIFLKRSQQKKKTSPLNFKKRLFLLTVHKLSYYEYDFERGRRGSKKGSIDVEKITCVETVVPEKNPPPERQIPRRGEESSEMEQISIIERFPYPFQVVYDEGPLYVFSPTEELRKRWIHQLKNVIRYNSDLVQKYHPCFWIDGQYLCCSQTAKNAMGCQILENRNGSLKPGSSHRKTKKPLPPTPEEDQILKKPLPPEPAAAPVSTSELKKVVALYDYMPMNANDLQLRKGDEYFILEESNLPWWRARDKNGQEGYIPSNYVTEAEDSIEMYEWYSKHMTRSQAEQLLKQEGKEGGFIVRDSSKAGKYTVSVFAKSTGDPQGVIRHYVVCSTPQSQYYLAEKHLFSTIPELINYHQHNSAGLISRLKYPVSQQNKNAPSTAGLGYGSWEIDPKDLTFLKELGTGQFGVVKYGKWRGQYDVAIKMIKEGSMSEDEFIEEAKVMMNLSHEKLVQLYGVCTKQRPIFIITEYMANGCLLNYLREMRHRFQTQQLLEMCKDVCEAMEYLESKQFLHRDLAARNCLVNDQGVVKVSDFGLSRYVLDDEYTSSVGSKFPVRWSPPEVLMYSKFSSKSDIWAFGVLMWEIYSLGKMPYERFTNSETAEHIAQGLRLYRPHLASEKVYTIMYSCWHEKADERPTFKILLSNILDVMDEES
T2 sequence (Q13526 52-163 limits assumed): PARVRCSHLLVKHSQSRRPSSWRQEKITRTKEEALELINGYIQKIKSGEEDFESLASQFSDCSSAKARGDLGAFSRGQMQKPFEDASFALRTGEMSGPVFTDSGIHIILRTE

With `C#CCOS(=O)(=O)N1CCC[C@@H](n2nc(-c3ccc(Oc4ccccc4)cc3)c3c(N)ncnc32)C1` [3j] the “reaction with GSH (in words)” value [1] was “did not undergo any reaction with GSH”, the “BTK autophosphorylation / activity after treatment (in words)” value [2] was “BTK remained active” and the “apparent off-targets that ibrutinib did not compete” value [3] was “three”. The “BTK labeling in cells (in words)” value ([3]; TAMRA-azide) was “showed BTK labeling”.
In the case of `C#Cc1ccc(NC(=O)CCl)cc1` [2c], the “proteins labeled under cellular conditions” value [4] is reported as “labeled the highest number of proteins”.
For `CC(C)(C)CN(C(=O)COS(=O)(=O)Nc1ccccc1)C1CCS(=O)(=O)C1` (stereo not drawn) [4d], the “thiol reactivity compared to sulfopin” value [5] was “lower thiol reactivity than sulfopin”, the “labeling of Pin1” value [6] was greater than 90% and the Ki [7] was 43.6 µM. The “isoDTB-ABPP H/L Ratio” value [8, 11] was 3.057, the “isoDTB-ABPP H/L Ratio” value ([8]; Q15149_C4494, text: PATU-8988T cells) was 2.693 and the “metabolic stability (in words)” value [9] was “good metabolic stability”.
In the case of `CC(C)(C)CN(C(=O)CCl)C1CCS(=O)(=O)C1` (stereo not drawn) [sulfopin, reference compound], the “hydrolysis (buffer stability, sulfopin analogues)” value ([10]; 200 μM, PBS buffer pH 8, 37 °C for four days) is reported as 30%, the “hydrolysis (buffer stability, sulfopin analogues)” value ([10]; PBS buffer pH 8, 37 °C, after 2 days) is reported as 30% and the “labeling of Pin1” value [6] is reported as 59%. For the same molecule, the Ki [7] was 217 µM, the “isoDTB-ABPP H/L Ratio” value ([8]; P18031_C32, text: PATU-8988T cells) was 2.941 and the “isoDTB-ABPP H/L Ratio” value [8, 11] was 11.8257. The “metabolic stability (in words)” value [9] was “good metabolic stability”.

— publication PMC9936582, “Sulfamate Acetamides as Self-Immolative Electrophiles for Covalent Ligand-Directed Release Chemistry” (Journal of the American Chemical Society, 2023)
